Legend:
[1] = system: ALK phosphorylation in NCI-H2228 and Karpas-299 cell lines; assay: Immunoblot of ALK phosphorylation and downstream signaling; type: cell-based; settings: 2 h, dose-dependent
[2] = system: patients without treatment with other ALK inhibitors; settings: phase I study, 24 patients, cited from earlier work

Row | SMILES | autophosphorylation of ALK; phosphorylation of AKT and STAT3 (immunoblot) [1] | ORR, ALK+ patients ([2]; ALK+) [%] | ORR, NRTK1–3+ patients ([2]; NRTK1–3+) [%] | ORR, ROS1+ patients ([2]; ROS1+) [%]
1 | Cc1cc(Nc2ncc(Cl)c(Nc3ccccc3S(=O)(=O)C(C)C)n2)c(OC(C)C)cc1C1CCNCC1 [Ceritinib] | can inhibit autophosphorylation of ALK | – | – | –
2 | CN1CCN(c2ccc(C(=O)Nc3n[nH]c4ccc(Cc5cc(F)cc(F)c5)cc34)c(NC3CCOCC3)c2)CC1 [entrectinib] | – | 57 | 100 | 85

Source: article PMC5704298 (ACS Central Science, 2017)
